Calls of active or inactive are those of the source. The calls are words filed in the database; no cut-off is given here.
Legend:
BV-2 [1] = assay: Induction of microglial polarization to M2 phenotype in mouse BV-2 cells assessed as reduction in iNOS activity incubated for 24 hrs by Western blotting analysis; type: functional, cell-based
BV-2 [2] = assay: Induction of microglial polarization to M2 phenotype in mouse BV-2 cells assessed as increase in Arg-1 activity incubated for 24 hrs by Western blotting analysis; type: functional, cell-based
[3] = molecular target: Acetylcholinesterase (Electrophorus electricus) (UniProt O42275); assay: Inhibition of electric eel AChE using acetylthiocholine iodide as substrate preincubated with enzyme for 20 mins followed by substrate addition and measured after 20 mins by Ellman's method; parameters: concentration or dose not given beside the values; conditions: time 40.0 min
Cholinesterase [4] = molecular target: Cholinesterase (Equus caballus, UniProt P81908); assay: Inhibition of equine BuChE using butyrylthiocholine iodide as substrate preincubated with enzyme for 20 mins followed by substrate addition and measured after 20 mins by Ellman's method
[5] = molecular target: Acetylcholinesterase (Homo sapiens) (UniProt P22303); assay: Inhibition of recombinant human AChE using acetylthiocholine iodide as substrate incubated for 5 mins relative to control
Cholinesterase [6] = molecular target: T1, Cholinesterase (Homo sapiens, UniProt P06276); assay: Inhibition of human BuChE using butyrylthiocholine iodide as substrate incubated for 5 mins
[7] = molecular target: T2, Fatty-acid amide hydrolase 1 (Homo sapiens, UniProt O00519); assay: Inhibition of human FAAH using arachidonoyl amide as substrate incubated for 30 mins by fluorescence-based cayman assay
T2 sequence (O00519 whole entry): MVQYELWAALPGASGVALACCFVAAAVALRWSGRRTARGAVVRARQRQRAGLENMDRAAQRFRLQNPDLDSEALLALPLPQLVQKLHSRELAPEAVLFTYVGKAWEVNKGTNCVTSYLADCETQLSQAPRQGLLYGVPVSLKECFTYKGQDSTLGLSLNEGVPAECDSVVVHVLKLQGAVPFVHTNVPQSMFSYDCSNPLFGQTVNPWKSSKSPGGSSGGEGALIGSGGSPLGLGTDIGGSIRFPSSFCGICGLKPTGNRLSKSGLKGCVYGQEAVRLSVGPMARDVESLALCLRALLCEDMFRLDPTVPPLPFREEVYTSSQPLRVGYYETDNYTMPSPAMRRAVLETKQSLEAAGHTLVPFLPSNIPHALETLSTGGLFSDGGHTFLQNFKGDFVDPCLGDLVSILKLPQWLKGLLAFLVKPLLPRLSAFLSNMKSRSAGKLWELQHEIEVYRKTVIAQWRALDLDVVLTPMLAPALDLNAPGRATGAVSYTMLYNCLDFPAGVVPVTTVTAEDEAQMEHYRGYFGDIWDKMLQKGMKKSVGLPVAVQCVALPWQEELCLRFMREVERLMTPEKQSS

Cholinesterase [8] = molecular target: T1, Cholinesterase; assay: Binding affinity to human BuChE (unknown origin) assessed as equilibrium dissociation constant at 100 to 1000 nM incubated for 60 mins
Cholinesterase [9] = molecular target: T1, Cholinesterase; assay: Binding affinity to human BuChE (unknown origin) assessed as carbamolyation rate at 100 to 1000 nM incubated for 60 mins; conditions: dose 100-1000 nM
Cholinesterase [10] = molecular target: T1, Cholinesterase; assay: Binding affinity to human BuChE (unknown origin) assessed as overall carbamolyation rate at 100 to 1000 nM incubated for 60 mins
Cholinesterase [11] = molecular target: T1, Cholinesterase; assay: Binding affinity to human BuChE (unknown origin) assessed as decarbamolyation rate at 100 to 1000 nM incubated for 60 mins; conditions: dose 100-1000 nM
L02 [12] = assay: Cytotoxicity against human L02 cells assessed as reduction in cell viability at 12.5 uM incubated for 24 hrs by MTT assay; type: toxicity, cell-based; conditions: l02, 24 h
L02 [13] = assay: Cytotoxicity against human L02 cells assessed as reduction in cell viability at 6.25 to 50 uM incubated for 24 hrs by MTT assay relative to control; type: toxicity, cell-based; conditions: l02, 24 h, dose 6.25-50 µM
[14] = Neurotoxicity against mouse BV-2 cells assessed as reduction in cell viability at 25 to 50 uM incubated for 24 hrs by MTT assay; type: toxicity, cell-based; conditions: bv-2, 24 h, dose 25-50 µM
[15] = Neurotoxicity against mouse BV-2 cells assessed as improvement in cell morphological changes at 20 uM by inverted microscopic analysis; type: toxicity, cell-based; conditions: bv-2, 20 µM
BV-2 [16] = assay: Immunomodulatory activity in mouse BV-2 cells assessed as decrease in LPS induced IL-1 beta release at 10 uM incubated for 24 hrs by Western blotting analysis; type: functional, cell-based
BV-2 [17] = assay: Immunomodulatory activity in mouse BV-2 cells assessed as decrease in LPS induced iNOS expression at 10 uM incubated for 24 hrs by Western blotting analysis; type: functional, cell-based
BV-2 [18] = assay: Immunomodulatory activity in mouse BV-2 cells assessed as decrease in LPS induced IL-1 beta release incubated for 24 hrs by Western blotting analysis; type: functional, cell-based; conditions: dose 0-10 µM
BV-2 [19] = assay: Induction of microglial polarization to M2 phenotype in mouse BV-2 cells assessed as increase in Arg-1 expression incubated for 24 hrs by Western blotting analysis; type: functional, cell-based; conditions: dose 0-10 µM
BV-2 [20] = assay: Induction of microglial polarization to M2 phenotype in mouse BV-2 cells assessed as increase in CD206 expression incubated for 24 hrs by Western blotting analysis; type: functional, cell-based; conditions: dose 0-10 µM
PC-12 [21] = assay: Neuroprotective activity against H2O2 induced rat PC12 cells assessed as increase in cell viability at 50 uM measured after 24 hrs by MTT assay relative to control; type: functional
PC-12 [22] = assay: Neuroprotective activity against H2O2 induced rat PC12 cells assessed as cell viability measured after 24 hrs by MTT assay; type: functional, cell-based; conditions: dose 6.25-50 µM
[23] = Toxicity in amyloid beta (1 to 42 residues) induced ICR male mouse model assessed as effect on body weight at 10 mg/kg, po administered for 12 days and measured daily; type: organism-based; conditions: in vivo, 288 h, time 12 day
Mus musculus [24] = assay: Antialzheimer activity against amyloid beta (1 to 42 residues) induced ICR male mouse model assessed as prevention in cognitive dysfunction at 10 mg/kg, po administered for 12 days by Morris water maze test; type: functional, organism-based; conditions: time 12.0 day
Mus musculus [25] = assay: Antialzheimer activity against amyloid beta (1 to 42 residues) induced ICR male mouse model assessed as reduction in amyloid beta (1 to 42 residues) at 10 mg/kg, po administered for 12 days by ELISA relative to control; type: functional; parameters: scale not given: the % may be the effect or the level left; conditions: time 12 day
[26] = Toxicity in amyloid beta (1 to 42 residues) induced ICR male mouse model assessed as pericentral necrosis at 10 mg/kg, po administered for 12 days and measured on day 15 by H and E staining based immunohistochemistry analysis; type: organism-based; conditions: in vivo, 288 h, time 12 day
[27] = Toxicity in amyloid beta (1 to 42 residues) induced ICR male mouse model assessed as hepatocyte fatty degeneration at 10 mg/kg, po administered for 12 days and measured on day 15 by H and E staining based immunohistochemistry analysis; type: organism-based; conditions: in vivo, 288 h, time 12 day
Mus musculus [28] = assay: Antialzheimer activity against amyloid beta (1 to 42 residues) induced ICR male mouse model assessed as increase in neuron density in hippocampal CA1 region at 10 mg/kg, po administered for 12 days and measured on day 15 by H and E staining based analysis; type: functional, organism-based; conditions: time 12.0 day
in vitro = conditions: PAMPA, pH 7.4
Description: Permeability of the compound in PBS at pH 7.4 incubated for 18 hrs by PAMPA-BBB assay

[29] = molecular target: T2, Fatty-acid amide hydrolase 1; assay: Inhibition of human FAAH

T1 sequence (P06276 whole entry): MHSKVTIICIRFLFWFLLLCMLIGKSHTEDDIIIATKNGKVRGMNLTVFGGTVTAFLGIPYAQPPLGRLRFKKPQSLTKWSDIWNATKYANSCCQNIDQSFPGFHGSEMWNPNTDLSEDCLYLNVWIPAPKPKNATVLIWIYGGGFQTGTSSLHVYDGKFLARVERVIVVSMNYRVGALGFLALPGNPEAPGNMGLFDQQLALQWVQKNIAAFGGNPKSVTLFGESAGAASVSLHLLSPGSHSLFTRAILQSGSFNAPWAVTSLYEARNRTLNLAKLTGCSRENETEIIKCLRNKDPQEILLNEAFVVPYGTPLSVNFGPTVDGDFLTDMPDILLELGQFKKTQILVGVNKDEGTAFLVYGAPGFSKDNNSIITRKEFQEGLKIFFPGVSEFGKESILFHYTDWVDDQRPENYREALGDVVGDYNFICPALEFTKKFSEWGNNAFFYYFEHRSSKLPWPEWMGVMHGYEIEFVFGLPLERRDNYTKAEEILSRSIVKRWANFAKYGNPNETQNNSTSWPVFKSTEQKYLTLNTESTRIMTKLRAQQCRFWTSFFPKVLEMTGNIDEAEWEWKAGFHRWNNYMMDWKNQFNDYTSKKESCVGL
Chain of Acetylcholinesterase (Homo sapiens) (P22303 whole entry): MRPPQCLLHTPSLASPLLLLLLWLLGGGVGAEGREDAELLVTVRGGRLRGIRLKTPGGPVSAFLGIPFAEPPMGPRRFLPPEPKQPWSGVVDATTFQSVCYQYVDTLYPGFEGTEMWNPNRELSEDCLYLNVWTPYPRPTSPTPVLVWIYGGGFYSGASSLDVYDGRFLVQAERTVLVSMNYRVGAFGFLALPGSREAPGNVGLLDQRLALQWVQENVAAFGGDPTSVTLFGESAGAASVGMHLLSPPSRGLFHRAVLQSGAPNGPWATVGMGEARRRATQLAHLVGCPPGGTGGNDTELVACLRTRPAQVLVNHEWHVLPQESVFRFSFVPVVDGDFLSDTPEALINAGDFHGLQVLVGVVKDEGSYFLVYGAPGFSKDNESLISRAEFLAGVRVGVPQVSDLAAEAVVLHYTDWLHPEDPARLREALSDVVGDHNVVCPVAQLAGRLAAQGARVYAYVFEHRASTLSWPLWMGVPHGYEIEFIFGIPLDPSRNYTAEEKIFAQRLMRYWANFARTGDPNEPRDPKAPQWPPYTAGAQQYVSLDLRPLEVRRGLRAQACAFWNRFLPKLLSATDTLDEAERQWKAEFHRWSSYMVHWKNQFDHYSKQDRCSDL
Chain of Cholinesterase (Equus caballus, UniProt P81908) (P81908 whole entry): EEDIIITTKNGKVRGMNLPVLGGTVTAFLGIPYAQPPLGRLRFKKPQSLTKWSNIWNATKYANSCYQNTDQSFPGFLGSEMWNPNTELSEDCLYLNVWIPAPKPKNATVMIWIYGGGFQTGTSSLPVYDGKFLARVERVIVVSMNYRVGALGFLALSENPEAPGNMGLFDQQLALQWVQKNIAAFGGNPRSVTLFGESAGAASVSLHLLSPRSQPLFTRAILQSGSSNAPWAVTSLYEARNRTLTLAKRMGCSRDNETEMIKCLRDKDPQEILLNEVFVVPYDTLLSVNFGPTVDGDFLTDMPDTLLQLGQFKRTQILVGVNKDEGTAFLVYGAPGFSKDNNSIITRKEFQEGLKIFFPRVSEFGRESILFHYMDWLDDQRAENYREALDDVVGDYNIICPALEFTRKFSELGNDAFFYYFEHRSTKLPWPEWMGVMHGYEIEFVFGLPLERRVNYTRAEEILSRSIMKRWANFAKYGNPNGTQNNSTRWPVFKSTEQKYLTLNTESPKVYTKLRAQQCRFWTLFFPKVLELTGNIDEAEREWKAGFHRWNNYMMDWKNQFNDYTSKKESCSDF
Chain of Acetylcholinesterase (Electrophorus electricus) (O42275 24-633 limits assumed): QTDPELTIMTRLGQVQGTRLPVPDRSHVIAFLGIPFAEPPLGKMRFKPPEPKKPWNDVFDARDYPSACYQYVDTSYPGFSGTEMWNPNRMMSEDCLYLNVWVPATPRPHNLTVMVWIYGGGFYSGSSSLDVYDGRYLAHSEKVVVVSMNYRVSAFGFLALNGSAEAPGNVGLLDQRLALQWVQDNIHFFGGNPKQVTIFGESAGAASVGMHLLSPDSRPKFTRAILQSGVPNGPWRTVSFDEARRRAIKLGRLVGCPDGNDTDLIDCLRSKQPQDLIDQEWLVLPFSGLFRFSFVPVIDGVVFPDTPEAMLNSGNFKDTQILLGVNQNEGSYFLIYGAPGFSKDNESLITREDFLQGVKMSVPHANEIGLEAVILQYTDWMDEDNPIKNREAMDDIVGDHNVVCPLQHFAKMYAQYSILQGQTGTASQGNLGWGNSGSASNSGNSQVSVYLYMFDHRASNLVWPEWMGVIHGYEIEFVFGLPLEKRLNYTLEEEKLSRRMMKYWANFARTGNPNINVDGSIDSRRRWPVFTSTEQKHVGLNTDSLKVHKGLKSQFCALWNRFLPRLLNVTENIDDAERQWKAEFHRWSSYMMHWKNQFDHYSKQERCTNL

SMILES: COc1ccc(C(C)=O)c(OC(=O)N(C)Cc2ccc(F)cc2)c1
- Activity (BV-2 [1]): Active
- Activity (BV-2 [2]): Active
- inhibition [3]: 53%
- IC50 (Cholinesterase [4]): 12 nM
- inhibition [5]: 10.4%
- IC50 (Cholinesterase [6]): 81 nM
- IC50 [7]: 400 nM
- Kd (Cholinesterase [8]): 2110 nM
- K (Cholinesterase [9]): 2.27 min⁻¹
- Ki (Cholinesterase [10]): 2.8 10^-3/uM/min
- K (Cholinesterase [11]): 2.83 min⁻¹
- Activity (L02 [12]): Non-toxic
- Activity (L02 [13]): 88.6%
- Activity [14]: Non-toxic
- Activity [15]: Non-toxic
- Activity (BV-2 [16]): Active
- Activity (BV-2 [17]): Active
- Activity (BV-2 [18]): Dose-dependent-effect
- Activity (BV-2 [19]): Dose-dependent-effect
- Activity (BV-2 [20]): Dose-dependent-effect
- Activity (PC-12 [21]): 43%
- Activity (PC-12 [22]): Dose-dependent-effect
- Activity [23]: Non-toxic
- Activity (Mus musculus [24]): Active
- Activity (Mus musculus [25]): 8.8%
- Activity [26]: Non-toxic
- Activity [27]: Non-toxic
- Activity (Mus musculus [28]): Active
- Papp at 18 h (in vitro): 16.4 ×10⁻⁶ cm/s

SMILES: CN(C(=O)n1cnc(-c2ccc[n+]([O-])c2)c1)C1CCCCC1
- IC50 [29]: 7500 nM
